Assays:
Type in all cases: cell-based, Murine
MSCs [1] = assay: YAP localization in MSCs confined on fibronectin line patterns treated with modulators of nuclear import; settings: for YAP Ratio with increasing Kmax XY: fibronectin line patterns 1.5-8 μm, Pitstop2 30 μM 1 hour; for nuclear YAP on thick (8 μm) and thin (1.5 μm) line patterns: microscopy, FIGS. 15B-15D
Method: Glass coverslips were adhesively micropatterned on 22*22 mm no. 1 with a UV-based patterning system (PRIMO, Alveole Lab, Paris, France). Glass coverslips were incubated with Poly-L-Lysine (PLL, Sigma) solution (5 mg/mL) prepared in 0.1 M HEPES buffer (pH 8.5) for 1 hour at room temperature, followed by rinsing with MiliQ™ water. Positively charged PLL electrostatically adsorbed onto the negatively charged surface of silicone substrates and allowed protein attachment after printing. The coverslips were then incubated with Polyethylene glycol valeric acid (PEG-SVA, Laysan Bio) prepared in 0.1 M HEPES buffer (pH 8.5) for 30 minutes at room temperature, followed by thorough rinsing with phosphate buffer saline (PBS) pH 7. PEG-SVA acts as an antifouling brush layer that repels protein attachment. The coverslips were then covered with the UV sensitive photo-initiator solution of PLPP (Alveole Lab, Paris, France) and placed on the stage of a microscope (Nikon Ti2 Eclipse) equipped with the UV-patterning system.
To generate the patterns, open-source graphics software programs were used, Inkscape and ImageJ, to generate binary 8-bit mask image files that were loaded into PRIMO's control software. The desired pattern was generated by a digital micromirror array in the PRIMO system and projected using a 375 nm UV laser with an intensity of 29 mW/mm^2 via 20×/0.45NA objective. The projected pattern results in localized photodegradation of the antifouling PEG-SVA brush, in the shape of the desired pattern. An exposure dose of 20 seconds was adequate to complete photodegradation of the PEG-SVA brush. Following UV exposure, the coverslips were washed with PBS and incubated them for 1 hr at room temperature with 40 μg/mL fibronectin (Sigma) in PBS to adsorb the protein to the exposed PLL surface. Excess protein was rinsed off with PBS 3 times prior to cell seeding.
(§1) To observe endogenous YAP localization, the MSCs were fixed with 4% paraformaldehyde for 15 min in room temperature and washed 3 times with PBS. The cells were permeabilized with 0.1% Triton X-100 diluted in PBS for 10 minutes. To avoid any nonspecific binding, cells were incubated with 1% bovine serum albumin (BSA) in PBS for 30 minutes at room temperature. To visualize YAP, cells were first incubated with 10 μg/ml Anti-YAP1 mouse monoclonal antibody (ab56701, Abcam™) diluted in 1% BSA in PBS overnight, followed by PBS wash and 1 hour incubation with 10 μg/ml Donkey Anti-Mouse IgG H&L (Alexa Fluor™ 647) secondary antibody (ab150107, Abcam™) diluted in 1% BSA in PBS. For nuclear characterization, nuclei were stained with 10 μg/ml Bisbenzimide Hoechst 33342 trihydrochloride (Sigma™) in PBS for 20 minutes, cells were washed with PBS.
To identify the mechanisms involved in YAP localization via nuclear curvature, MSCs were confined on fibronectin line patterns of decreasing thickness and then exposed to various drugs that manipulate active and passive nuclear import mechanisms. Finally, MSCs were fixed and stained with Anti-YAP1 antibody and Hoechst as explained above. To inhibit active nuclear import, MSCs were treated with 40 μM Importazole (cayman chemicals) for 1 hour, it inhibits importinβ/Ran GTP nuclear import pathway. For inhibiting both active and passive nuclear import, MSCs were treated with 30 μM Pitstop2 (abcam) for 1 hour, it disrupts nuclear pore complex structure and blocks nuclear pores. […]

MSCs [2] = assay: Cytochalasin D treatment: endogenous YAP localization and nuclear deformation in MSCs on fibronectin-coated glass coverslips; settings: versus wildtype MSCs
Method: For YAP localization measurements MSCs were imaged in two channels one for iRFP YAP transfected or Alexa 647 conjugated secondary antibody-stained cells (Ex 647 nm laser) and other for Hoechst-stained nuclei (Ex 405 nm laser). The principal metric for YAP quantification was the ratio of fluorescence of iRFP YAP in the nucleus to iRFP YAP in the cytoplasm and is referred to as the YAP Ratio. Image segmentation was performed using a custom MATLAB code, that segments the nucleus from Hoechst and cytoplasm from YAP and measures the ratio of total iRFP YAP fluorescence inside the nucleus to total iRFP YAP fluorescence in the cytoplasm.
as §1
To study the role of nuclear deformation in YAP localization, XYZ stacks of Hoechst-stained nuclei of iRFP YAP transfected MSCs were captured using confocal microscope (Leica TCS SP8, 63× objective) with a closed pinhole 0.5 AU and thin Z step size of 0.3 μm. All the XYZ stacks were analyzed using a custom MATLAB code that measures nuclear volumes, surface area, height, major axis, minor axis, and curvature. In brief, the three-dimensional XYZ stacks were, preprocessed by background subtraction threshold, and binarization. The nuclear volumes, surface area, height, major axis, and minor axis were first measured in pixels using regionprops3™ in MATLAB, which were then converted to microns. Nuclear flatness, Nuclear Eccentricity and Nuclear Aspect Ratio were measured using the following equations: […]
For nuclear curvature analysis, XYZ stacks of Hoechst-stained nuclei were resliced into 2D image sections in XY, XZ and YZ directions. For each resliced 2D nuclear image, curvature was measured across the nuclear boundary, using a curvature function in MATLAB. […] This provided us with distribution of curvature values of the complete nucleus quantified from resliced nuclear images in all three dimensions of XY, XZ and YZ separately (FIGS. 9A-9L). […]

[3] = test system: MSCs transfected with Nesprin 2G tension sensor; assay: Nesprin 2G FRET tension sensor, nuclear membrane tension in MSCs; settings: before versus after actin depolymerization
Description: To measure nuclear membrane tension, MSCs were co-transfected Nesprin tension sensor (pcdna nesprin TS, 68127, Addgene) and iRFP-YAP plasmid. Nesprin tension sensors are fluorescent resonance energy transfer-based tension biosensors for nesprin 2G, a structural protein at the LINC complex, which links actin cytoskeleton to the nucleus. For control experiments, MSCs were transfected with Nesprin headless control (pcdna nesprin HL, 68128, Addgene), which lacks the actin-binding domain and is localized on the nuclear membrane. […]
All the image processing and analysis was performed on open-source Image J software. […] Ratio images were calculated by dividing the unmixed venus channel by the unmixed teal channel. For each image, binary masks were manually created in ImageJ to exclude pixels outside of the nuclear membrane as determined by the mVenus channel. […] Local FRET intensity and local curvature were measured using Kappa Curvature Analysis plugin in Image J. In brief, the 2D FRET images were opened in Kappa Curvature Analysis plugin and using a selection tool, points were manually selected across the nuclear membrane and a closed curvature fit was performed. […]

[4] = Importazole 40 μM 1 hour, trans-1,2-Cyclohexanediol 258 mM 5 mins
[5] = 1.5 μM for 2 hours, fibronectin-coated glass coverslips

Row | Structure (SMILES) | YAP Ratio with increasing Kmax XY (MSCs [1]; [4]) | nuclear YAP on thick (8 μm) and thin (1.5 μm) line patterns (MSCs [1]) | YAP Ratio compared with untreated MSCs (MSCs [1]; fibronectin line patterns, Importazole 40 μM 1 hour, trans-1,2-Cyclohexanediol 258 mM 5 mins) | YAP Ratio (nuclear to cytoplasmic YAP, endogenous, anti-YAP antibody) (MSCs [2]; [5]) | nuclear volume (MSCs [2]; [5]) | YAP Ratio (nuclear to cytoplasmic YAP, endogenous, anti-YAP antibody) (MSCs [2]; 1.5 μM for 2 hours, fibronectin-coated glass coverslips, listed as Cyto D) | maximum nuclear curvature (Kmax XZ) / nuclear curvature distribution (MSCs [2]; Hoechst-stained nuclei, XYZ stacks, listed as Cyto D) | FRET intensity (increase = decrease in nuclear membrane tension) [3]
1 | O=C1NC(=NS(=O)(=O)c2cccc3ccccc23)S/C1=C\c1ccc(Br)cc1 [Pitstop2] | complete inhibition of curvature influenced YAP Ratio | low nuclear YAP on both thick (8 μm) and thin (1.5 μm) line patterns | – | – | – | – | – | –
2 | CC(Nc1nc(N2CCCC2)nc2ccccc12)c1ccccc1 (stereo not shown) [importazole, Importazole] | small increase in YAP ratios with increasing Kmax XY | low nuclear YAP on both thick (8 μm) and thin line patterns (1.5 μm) | substantially less than untreated MSCs | – | – | – | – | –
3 | C=C1[C@@H](C)[C@H]2[C@H](Cc3ccccc3)NC(=O)[C@]23[C@H](OC(C)=O)/C=C/[C@@](C)(O)C(=O)[C@@H](C)C/C=C/[C@H]3[C@@H]1O [Cytochalasin D] | – | – | – | low YAP ratio | high nuclear volumes | lower YAP Ratios | lower maximum curvature in XZ | increase in FRET intensity

Source: US20240344029A1, “STEM CELL DIFFERENTIATION BY CONTROLLING NUCLEAR CURVATURE” (THE ROYAL INSTITUTION FOR THE ADVANCEMENT OF LEARNING / …, priority 2023, published 2024)
